Legend:
[1] = system: mycorrhization of Lotus japonicus by Rhizophagus irregularis; experiment: Mycorrhization of Lotus japonicus (birdsfoot trefoil); assay type: in vivo; conditions: 0.1 μM, 5 weeks post inoculation; vs control; FIGS. 9, 10, 11, 12 and 18
Description: The effects of the LjmiPEP171b on mycorrhization of the birdsfoot trefoil were analyzed by treating the plants with LjmiPEP171b in parallel with the mycorrhization.
The seeds are sterilized in sodium hypochlorite solution for 20 min then rinsed several times in water.
Culturing of the birdsfoot trefoil plants is carried out in a pot containing vermiculite with cotton fibre at the bottom. 5,000 spores of Rhizophagus irregularis are added per pot. The spores in mixtures in a substrate are arranged in a layer on the vermiculite to approximately two thirds of the height of the pot. The remainder of the pot is then filled with vermiculite and 10 seeds of pre-germinated birdsfoot trefoil are placed in the moist substrate. 3 pots are prepared for each treatment. The pots are then places in a growing room at 25° C.
Treatments of the Plants with miPEP: • LjmiPEP171e: 0.1 μM (final) • Control: water.
The treatments are carried out on Monday and Friday by mixing the solution of miPEP or control with the nutrient solution (suitable B&D medium) and on Wednesday the solution of miPEP or control in water. Each pot is watered with 10 ml except on Friday 30 ml (without changing the quantity of miPEP), in order to last over the weekend. […]

[2] = system: mycorrhization of Solanum lycopersicum by Rhizophagus irregularis; experiment: Mycorrhization of Solanum lycopersicum (tomato); assay type: in vivo; conditions: 0.1 μM slmiPEP171e, watering every two days, 12 weeks post inoculation; vs solvent; FIGS. 8 and 17
Description: The effects of slmiPEP171e on mycorrhization of the tomato were analyzed by treating the plants with slmiPEP171e in parallel with the mycorrhization.
The seeds are sterilized for 2 minutes in sodium hypochlorite solution diluted ¼, then rinsed at least 8 times with sterile water.
The seeds are placed in a Petri dish containing water+1% agar. The dishes are placed at 4° C. overnight, then they are placed at ambient temperature for 4 days in order to germinate the seeds.
The germinated seeds are transferred to an Oil-Dry® substrate containing spores of Rhizophagus irregularis at the concentration of 400 spores/L. After two days of adaptation under mini-greenhouse the seedlings are transferred to a growing room or greenhouse. The plants are watered regularly with a solution of Long Ashton+nitrogen (Lauressergues et al., Plant J. 72(3):512-22, 2012).
The treatment is carried out by watering the plants with 12.5 ml of water+the concentrated solution of miPEP or the equivalent of solvent solution (50% acetonitrile) for the control treatment. The treatments are carried out every two days.
The roots are cleared with 1% KOH 7 minutes at 90° C., then stained 10 minutes in an ink solution (5% Sheaffer ink; 5% acetic acid) at 90° C.

[3] = system: lateral roots of M. truncatula; experiment: Number of lateral roots in M. truncatula; assay type: in vivo, Medicago truncatula
Description: (§1) The surface of the seeds of M. truncatula was sterilized and they were placed to germinate on agar plates for 5 days at 4° C. in the dark. The young shoots were then grown on 12 cm square plates filled with Fahraeus medium without nitrogen and containing 7.5 μM phosphate (Lauresergues et al., Plant J., 72(3):512-22, 2012). The lateral roots were counted every day. In pots, the plants were watered every two days with modified Long Ashton medium containing little phosphorus (Balzergue et al., 2011 Journal of experimental botany, 62:1049-1060).
(§2) The peptides were synthesized by Eurogentec or Smartox-Biotech. The miPEP171b was placed in suspension in a water 40%/acetonitrile 50%/acetic acid 10% (v/v/v) solution.
The mean values of the relative expression of the genes or of the production of lateral roots were analyzed by using the Student test or the Kruskal-Wallis test. The error bars represent the standard error of the mean (SEM). The asterisks indicate a significant difference (p<0.05).
The DNA fragments of interest were amplified with Pfu polymerase (Promega). […]
(§3) The composite plants having roots transformed with Agrobacterium Rhizogenes were obtained by the method described in Boisson-Dernier et al. (Mol Plant-Microbe Interact, 18:1269-1276, 2005). The transformed roots were verified and selected by observations of DsRED with a binocular fluorescence magnifier. […]

[4] = system: HAM2 (Accession No. MtGI9-TC120850); experiment: Expression of the HAM2 gene in M. truncatula roots (qRT-PCR); assay type: in vivo, Medicago truncatula
Description: as §1, §2
(§4) The total RNA of the roots of M. truncatula was extracted by using the RNeasy Plant Mini Kit extraction kit (Qiagen). […]
(§5) The mean values of the relative expression of the genes or of the production of lateral roots were analyzed by using the Student test or the Kruskal-Wallis test. […]
as §3

miR171b = experiment: Accumulation of miR171b in M. truncatula roots (qRT-PCR); assay type: in vivo, Medicago truncatula
Description: as §1, §2
The RNA was extracted by using the reagent Tri-Reagent (MRC) according to the manufacturer's instructions, with the exception of precipitation of the RNA which was carried out with 3 volumes of ethanol. […]
as §5, §3

[5] = system: colonization of M. truncatula by the fungus Rhizophagus irregularis; experiment: Mycorrhization of M. truncatula by Rhizophagus irregularis; assay type: in vivo, Medicago truncatula
Description: Medicago truncatula plants were treated for 5 weeks, by watering every 2 days, with low concentrations (0.1 μM) of a synthetic peptide the sequence of which is identical to that of miPEP171b, and the percentage colonization of the plant was measured.
Sterile spores of Rhizophagus irregularis (previously called Glomus intraradices) DAOM197198 were purchased from Agronutrition (Carbonne, France).
Seeds of M. truncatula (Gaertn ‘Jemalong’ genotype A17) were sterilized on the surface and placed to germinate on agar plates in the dark for 5 days at 4° C. The plants were then grown on an Oil-Dri US-special substrate (Damolin, Denmark) for 5 to 12 weeks in a growing room and watered every 2 days with modified Long Ashton medium containing a low concentration of phosphate (Balzergue et al., J Exp Bot, 62(3):1049-60, 2011).
For the inoculation of the plants with R. irregularis, 450 spores were used per plant.
After washing in KOH 10% (weight/volume) and rinsing in sterile water, the mycorrhized roots were treated for 30 minutes with wheat germ agglutinin fluorescein conjugate (Invitrogen) which fixes the fungal chitin, then washed 3 times in a PBS buffer. The roots were then observed with an inverted optical microscope or a confocal microscope (Leica, France).
Alternatively, the roots were labelled with black Schaeffer ink according to the protocol described in Vierheilig et al., Appl Environ Microbiol, 64:5004-5007, 1998.
The percentage mycorrhization was measured using grids according to the protocol described in Giovannetti and Mosse, New Phytol, 84:489-500, 1980.
The accurate phenotyping of the mycorrhization was also carried out according to the method of Trouvelot et al., Physiological and Genetical Aspects of Mycorrhizae, pp 217-221, 1986. The frequency of mycorrhization (F) in the root system and the abundance of the arbuscules (A) (as a percentage) were calculated in colonized root sections using the software Mycocalc.
The size of the arbuscules was measured using the software ImageJ. […]

[6] = system: HAM1 (Accession No. MtGI9-TC114268); experiment: Expression of the HAM1 gene in M. truncatula roots (qRT-PCR); assay type: in vivo, Medicago truncatula
Description: as §1, §2, §4, §5, §3

[7] = system: mycorrhization of Oryza sativa by Rhizophagus irregularis; experiment: Mycorrhization of Oryza sativa (rice); assay type: in vivo; conditions: 0.1 μM, 5 weeks post inoculation; vs solvent control; FIGS. 13, 14, 15, 16 and 19
Description: The effects of the osmiPEP171i on mycorrhization of the rice were analyzed by treating the plants with osmiPEP171i in parallel with the mycorrhization.
The seeds are sterilized for 1 min with 70% ethanol, then for 30 min with sodium hypochlorite solution before rinsing.
Culturing of a previously germinated seed of rice is carried out in a pot containing vermiculite with cotton fibre at the bottom. 500 spores of Rhizophagus irregularis are added per pot. The spores in mixtures in a substrate are arranged in a layer on the vermiculite at approximately two thirds of the height of the pot. The remainder of the pot is then filled with vermiculite and a hole is made for placing a germinated rice seed therein. The substrate is moistened. The pots are then placed in a growing room at 25° C.
Treatments of the Plants with miPEP: • OsmiPEP171i: 0.1 μM (final) • Control: equivalent of 50% ACN solution
The treatments are carried out on Monday and Friday by mixing the solution of miPEP or control in 60 ml of nutrient solution (1/2 Hoagland with 25 μM Pi and Sequestren) and on Wednesday the solution of miPEP or control in 60 ml of water. Each plant is watered with 10 ml per pot. […]

[8] = plant in which miPEP171b is overexpressed vs control plant, FIG. 2A
[9] = synthetic peptide applied to roots, medium containing miPEP171b at 0.01 μM, 0.1 μM or 1 μM, vs control plant, FIG. 3A

MYHRSKAKLCQTDGDDGGGSDM (listed as Lotus japonicus) [LjmiPEP171b]
mycorrhization of birdsfoot trefoil [1]: promotes

MKLGNIEGTYFIICLGRYI (listed as Solanum lycopersicum) [slmiPEP171e]
mycorrhization of the tomato [2]: promotes

MLLHRLSKFCKIERDIVYIS (listed as Medicago truncatula) [miPEP171b]
average number of lateral roots ([3]; medium containing miPEP171b at 0.1 μM for 5 days and 1 time per day, vs control plant, FIG. 3B): reduction | average number of lateral roots ([3]; plant in which miPEP171b is overexpressed vs control plant, FIG. 2B): reduction | expression of the HAM2 gene (relative expression) [4, 8]: reduction | expression of the HAM2 gene (relative expression) [4, 9]: reduction | accumulation of miR171b (relative expression) (miR171b; [8]): increase | accumulation of miR171b (relative expression) (miR171b; [9]): increase | mycorrhization rate ([5]; 0.1 μM miPEP171b, 5 weeks post inoculation, vs control plants, FIG. 7): greater | mycorrhization (percentage colonization of the plant) ([5]; 0.1 μM synthetic peptide, watering every 2 days for 5 weeks, vs solvent control, FIG. 5): significantly increased | size (surface area) of the arbuscules ([5]; roots treated with 0.1 μM miPEP171b vs control roots, FIG. 6): larger size | expression of the HAM1 gene (relative expression) [6, 8]: reduction | expression of the HAM1 gene (relative expression) [6, 9]: reduction

MIARYIEREMTSKLGRGRKRAARLVAVFLLG (listed as Oryza sativa) [osmiPEP171i]
mycorrhization of rice [7]: promotes

Reference: patent publication US10920236B2, “Use of micropeptides in order to stimulate mycorrhizal symbiosis” (UNIVERSITE TOULOUSE III—PAUL SABATIER, priority 2014, dated 2021)
